From patent US12486273B2 (Hoffmann-La Roche Inc., priority 2019, dated 2025)

Legend:
human TLR9 = human TLR9 (Homo sapiens (Human), UniProt Q9NR96); test: HEK293-Blue-hTLR-9 cells assay; type: cell-based; details: HEK293-Blue-hTLR9 cells, ODN2006 stimulation, 20 hrs, SEAP reporter; read-out: HEK/hTLR9 IC50
[1] = Human microsomal stability assay; type: in vitro ADME; details: human liver microsomes, 1 μM test compound, 37° C., pH 7.4
Experimental: Human Microsomal Stability Assay
Human liver microsomes (Cat. NO.: 452117, Corning, USA) were preincubated with test compound for 10 minutes at 37° C. in 100 mM potassium phosphate buffer, pH 7.4. The reactions were initiated by adding NADPH regenerating system. The final incubation mixtures contained 1 μM test compound, 0.5 mg/mL liver microsomal protein, 1 mM MgCl2, 1 mM NADP, 1 unit/mL isocitric dehydrogenase and 6 mM isocitric acid in 100 mM potassium phosphate buffer, pH 7.4. After incubation times of 0, 3, 6, 9, 15 and 30 minutes at 37° C., 300 μL of cold ACN (including internal standard) was added to 100 μL incubation mixture to terminate the reaction. Following precipitation and centrifugation, 100 μL supernatant will be taken out and added 300 μL water. The amount of compound remaining in the samples was determined by LC-MS/MS. Controls of no NADPH regenerating system at zero and 30 minutes were also prepared and analyzed. The results were categorized as: low (<7.0 mL/min/kg), medium (7.0-16.2 mL/min/kg) and high (16.2-23.2 mL/min/kg).

hERG channel = hERG channel (Homo sapiens (Human), UniProt Q12809); test: hERG channel inhibition assay; type: cell-based; details: patch-clamp; for IC50: CHO hERG cells; for IC20: human, CHO cells stably expressing hERG
hERG channel, sequence (Q12809 whole entry): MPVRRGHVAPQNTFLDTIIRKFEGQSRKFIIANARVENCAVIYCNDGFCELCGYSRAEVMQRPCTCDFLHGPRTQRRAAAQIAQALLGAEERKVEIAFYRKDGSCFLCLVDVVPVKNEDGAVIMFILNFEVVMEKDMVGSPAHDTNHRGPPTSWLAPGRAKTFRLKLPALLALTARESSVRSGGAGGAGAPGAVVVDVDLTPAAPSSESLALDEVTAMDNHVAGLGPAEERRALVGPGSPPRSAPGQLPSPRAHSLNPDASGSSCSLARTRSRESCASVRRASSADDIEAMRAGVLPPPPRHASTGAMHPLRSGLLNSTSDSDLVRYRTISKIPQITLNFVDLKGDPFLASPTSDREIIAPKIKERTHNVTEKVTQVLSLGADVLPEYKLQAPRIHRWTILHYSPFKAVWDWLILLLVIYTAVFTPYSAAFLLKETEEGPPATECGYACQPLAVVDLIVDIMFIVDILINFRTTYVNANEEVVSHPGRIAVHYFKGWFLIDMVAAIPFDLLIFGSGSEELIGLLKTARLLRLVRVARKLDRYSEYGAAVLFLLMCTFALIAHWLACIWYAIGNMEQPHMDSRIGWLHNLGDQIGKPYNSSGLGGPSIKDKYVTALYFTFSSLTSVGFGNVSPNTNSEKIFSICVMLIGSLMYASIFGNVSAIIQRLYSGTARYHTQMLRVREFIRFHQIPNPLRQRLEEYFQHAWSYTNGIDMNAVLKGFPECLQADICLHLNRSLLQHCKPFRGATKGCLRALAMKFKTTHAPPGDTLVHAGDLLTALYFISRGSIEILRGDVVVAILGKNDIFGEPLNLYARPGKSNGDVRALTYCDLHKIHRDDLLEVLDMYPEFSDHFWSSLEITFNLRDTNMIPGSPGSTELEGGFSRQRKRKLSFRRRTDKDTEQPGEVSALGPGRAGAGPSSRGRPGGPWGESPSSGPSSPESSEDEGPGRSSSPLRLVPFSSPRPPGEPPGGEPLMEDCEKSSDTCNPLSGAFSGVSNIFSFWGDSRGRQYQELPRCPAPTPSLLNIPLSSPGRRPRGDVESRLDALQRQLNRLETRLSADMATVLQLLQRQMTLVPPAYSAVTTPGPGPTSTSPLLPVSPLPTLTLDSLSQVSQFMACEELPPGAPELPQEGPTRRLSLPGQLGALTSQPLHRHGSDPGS
Experimental: hERG Channel Inhibition Assay
The hERG K^+ channels were cloned in humans and stably expressed in a CHO (Chinese hamster ovary) cell line. CHOhERG cells were used for patch-clamp (voltage-clamp, whole-cell) experiments. Cells were stimulated by a voltage pattern to activate hERG channels and conduct IKhERG Currents (rapid delayed outward rectifier potassium current of the hERG channel). After the cells were stabilized for a few minutes, the amplitude and kinetics of IKhERG were recorded at a stimulation frequency of 0.1 Hz (6 bpm). Thereafter, the test compound was added to the preparation at increasing concentrations. For each concentration, an attempt was made to reach a steady-state effect, usually, this was achieved within 3-10 min at which time the next highest concentration was applied. The amplitude and kinetics of IKhERG are recorded in each concentration of the drug which were compared to the control values (taken as 100%). (references: Redfern WS, Carlsson L, Davis A S, Lynch W G, MacKenzie I, Palethorpe S, Siegl P K, Strang I, Sullivan A T, Wallis R, Camm A J, Hammond T G. 2003; Relationships between preclinical cardiac electrophysiology, clinical QT interval prolongation and torsade de pointes for a broad range of drugs: evidence for a provisional safety margin in drug development. Cardiovasc. Res. 58:32-45, Sanguinetti M C, Tristani-Firouzi M. 2006; hERG potassium channels and cardiac arrhythmia. Nature 440:463-469, Webster R, Leishman D, Walker D. 2002; Towards a drug concentration effect relationship for QT prolongation and torsades de pointes. Curr. Opin. Drug Discov. Devel. 5:116-26).

human TLR9, sequence (Q9NR96 26-1032): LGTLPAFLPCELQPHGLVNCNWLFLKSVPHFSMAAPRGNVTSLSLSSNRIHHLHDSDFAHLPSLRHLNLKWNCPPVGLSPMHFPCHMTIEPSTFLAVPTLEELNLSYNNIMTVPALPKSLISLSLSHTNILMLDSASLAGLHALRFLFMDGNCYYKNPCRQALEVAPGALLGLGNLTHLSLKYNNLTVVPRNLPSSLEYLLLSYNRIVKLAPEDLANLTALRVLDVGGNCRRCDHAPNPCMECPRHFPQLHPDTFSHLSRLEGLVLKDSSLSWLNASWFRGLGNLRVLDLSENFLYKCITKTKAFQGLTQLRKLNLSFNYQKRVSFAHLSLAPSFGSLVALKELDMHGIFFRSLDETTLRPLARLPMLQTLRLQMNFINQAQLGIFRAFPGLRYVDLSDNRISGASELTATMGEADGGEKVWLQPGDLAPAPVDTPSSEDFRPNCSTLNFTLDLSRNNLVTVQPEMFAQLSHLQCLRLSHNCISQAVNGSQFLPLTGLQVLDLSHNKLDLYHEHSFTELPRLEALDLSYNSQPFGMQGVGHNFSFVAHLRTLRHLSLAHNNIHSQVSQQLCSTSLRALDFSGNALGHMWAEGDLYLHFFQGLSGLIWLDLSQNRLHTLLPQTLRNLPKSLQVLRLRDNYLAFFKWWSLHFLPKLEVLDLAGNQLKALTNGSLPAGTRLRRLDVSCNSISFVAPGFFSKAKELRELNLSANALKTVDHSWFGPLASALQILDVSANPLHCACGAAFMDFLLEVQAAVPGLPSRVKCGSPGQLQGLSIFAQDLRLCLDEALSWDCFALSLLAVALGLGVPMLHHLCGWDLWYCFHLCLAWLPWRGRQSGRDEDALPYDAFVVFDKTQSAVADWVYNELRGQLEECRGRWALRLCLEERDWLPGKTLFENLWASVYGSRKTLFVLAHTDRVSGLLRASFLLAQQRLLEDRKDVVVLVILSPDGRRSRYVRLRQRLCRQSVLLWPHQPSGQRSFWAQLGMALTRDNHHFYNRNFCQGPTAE

| SMILES | IC50 (human TLR9) [µM] | CL (h) [1] [mL/min/kg] | IC50 (hERG channel) [µM] | IC20 (hERG channel) [µM] |
| --- | --- | --- | --- | --- |
| [2H]c1ccc2c(N3C[C@@H]4C[C@H](N5CCNCC5)CN4[C@H](C)C3)ccc(C#N)c2n1 [Example 15, 5-[(4R,7S,8aS)-4-methyl-7-piperazin-1-yl-3,4,6,7,8,8a-hexahydro-1H-pyrrolo[1,2-a]pyrazin-2-yl]-2-deuterio-quinoline-8-carbonitrile] | 0.12 | 8.0 | > 20 | > 10 |
| [2H]c1ccc2c(N3C[C@@H]4C[C@H](N5CCC(N(C)C)CC5)CN4[C@H](C)C3)ccc(C#N)c2n1 [Example 20, 5-[(4R,7S,8aS)-7-[4-(dimethylamino)-1-piperidyl]-4-methyl-3,4,6,7,8,8a-hexahydro-1H-pyrrolo[1,2-a]pyrazin-2-yl]-2-deuterio-quinoline-8-carbonitrile] | 0.15 | 6.2 | > 20 | > 10 |

The next lines start with results.

| IC50 (human TLR9) [µM] | CL (h) [1] [mL/min/kg] | SMILES | IC50 (hERG channel) [µM] | IC20 (hERG channel) [µM] |
| --- | --- | --- | --- | --- |
| 0.0434 | 9.1 | C[C@@H]1CN(c2ccc(C#N)c3ncccc23)C[C@@H]2C[C@@H](Nc3ccc4c(n3)CCNC4)CN21 [Example 1, 5-[(4R,7R,8aS)-4-methyl-7-(5,6,7,8-tetrahydro-1,6-naphthyridin-2-ylamino)-3,4,6,7,8,8a-hexahydro-1H-pyrrolo[1,2-a]pyrazin-2-yl]quinoline-8-carbonitrile] | > 20 | > 10 |
| 0.0895 | 7.3 | C[C@@H]1CN(c2ccc(C#N)c3ncccc23)C[C@@H]2C[C@@H](Nc3cc4c(cn3)CCNC4)CN21 [Example 2, 5-[(4R,7R,8aS)-4-methyl-7-(5,6,7,8-tetrahydro-2,6-naphthyridin-3-ylamino)-3,4,6,7,8,8a-hexahydro-1H-pyrrolo[1,2-a]pyrazin-2-yl]quinoline-8-carbonitrile] | > 20 | > 10 |
| 0.114 | 6.7 | C[C@@H]1CN(c2ccc(C#N)c3ncccc23)C[C@@H]2C[C@@H](Nc3ccc4c(n3)CNCC4)CN21 [Example 3, 5-[(4R,7R,8aS)-4-methyl-7-(5,6,7,8-tetrahydro-1,7-naphthyridin-2-ylamino)-3,4,6,7,8,8a-hexahydro-1H-pyrrolo[1,2-a]pyrazin-2-yl]quinoline-8-carbonitrile] | > 20 | > 10 |
